Source: patent US8173387B2, “Method of examining chemical using gene-disrupted strain” (priority 2003, dated 2012)

Columns and labels:
Assay type in all cases: cell-based, Saccharomyces cerevisiae
[1] = system: gene-disrupted strain DEL022 (YLR226W) transformed with a plasmid p-YBR072W; test: promoter assay (GFP reporter), Example 2; settings: GFP fluorescence 4 hours after loading, parent strain BY4743
Protocol: (§1) In a gene-disrupted strain, a growing rate becomes small so much, or medium components in which the strain can be grown are different in some cases, depending on a disrupted gene. Then, in the present experiment studying a host cell of a promoter assay method, in view of easy comparison with a control experiment, among gene-disrupted strains obtained as the result of Example 1, a few strains which have sensitivity to many chemicals and are grown by the same procedure as that of a parent strain were selected. Selected gene-disrupted strains are 8 strains of DEL000, DEL002, DEL011, DEL014, DEL016, DEL019, DEL022 and DEL025 in Table 7. Further, as a control, a parent strain, BY4743 was used.
(§2) A competent cell of each of a parent strain of a gene-disrupted strain and selected gene-disrupted strains was prepared. This competent cell was transformed using two kinds of prepared plasmids for promoter assay, p-YBR072W (in which GFP was connected understream of a promoter of YBR072W) and p-YPL171C (in which GFP was connected downstream of a promoter of YPL171C).
(§3) The resulting transformant was grown to the steady state by shaking-culturing on a SD medium (histidine, leucine) at 25° C. The transformant in the steady state was diluted 500-fold with the same medium, shaking-cultured at 25° C. for 15 hours and, after it was confirmed that an absorbance at 600 nm was 0.2 to 0.5 as a logarithmic growth phase, chemicals having different concentrations were loaded. After loading of chemicals, fluorescence of cells which had been cultured for 4 hours was measured using a flow cytometer (FITC filter, EPICS XL-MCL, Bechmancoulter), and this was adopted as an expression amount of GFP (green fluorescence protein) which is a marker gene. A fluorescence intensity of 10000 cells was measured with a flow cytometer by one measurement and an average of fluorescence intensities of all cells was obtained, and was adopted as a measured value. Similarly, a fluorescence intensity of a cell to which a chemical had not been loaded was obtained, and results are shown as a fluorescence intensity ratio.

[2] = system: gene-disrupted strain DEL025 (YLR311C) transformed with a plasmid p-YBR072W; test: promoter assay (GFP reporter), Example 2; settings: DEL025, p-YBR072W, GFP fluorescence 4 hours after loading, parent strain BY4743
Protocol: as §1, §2, §3

[3] = system: gene-disrupted strain DEL019 (YIL036W) transformed with a plasmid p-YBR072W; test: promoter assay (GFP reporter), Example 2; settings: DEL 019, p-YBR072W, GFP fluorescence 4 hours after loading, parent strain BY4743
Protocol: as §1, §2, §3

[4] = system: gene-disrupted strain DEL000 (YPR036W) transformed with a plasmid p-YBR072W; test: promoter assay (GFP reporter), Example 2; settings: GFP fluorescence 4 hours after loading, parent strain BY4743
Protocol: as §1, §2, §3

[5] = system: homozygous diploid of gene-disrupted strain DEL006 (YHR039C-A) transformed with a plasmid p-YBR072W; test: promoter assay (GFP reporter), Example 3; settings: W303 background
From the text: (§4) In order to prepare a gene-disrupted strain transformation cassette, genes having chemical sensitivity; YPR036W(DEL000), YDL151C(DEL001), YGL026C(DEL003), YHR039C-A(DEL006), YKL080W(DEL007), YLR447C(DEL008), YGR006W(DEL012), YGR105W(DRL013), YJR104C(DEL014), YGL206C(DEL018), YIL036W(DEL019), YKL119C(DEL020), YLR226W(DEL022) and YLR311C(DEL025) in Table 7 were selected, and each gene was replaced with a transformation marker such as kanamycin resistance. As primers for performing PCT amplification, a N-terminal side (ORF(upper)) and a C-terminal side (ORF(lower)) in each ORF were used. A length of a sequence (ORF(upper) and ORF(lower)) of a primer homologues with ORF was 46 or 50 bp.
(§5) A W303 a mating type (ATCC200903) and a W303α mating type (ATCC201238) in which the same gene was gene disruption-manipulated were mated by a mating procedure (Yeast Gene Experimental Manual: Maruzen Co., Ltd., p 83-92) to prepare homozygous diploids. Separately, mating of a W303a mating type, and a non-gene-disrupted W303α type was performed by the similar procedure to prepare heterozygous diploids.
(§6) By such the procedure, homozygous diploids of DEL000, DEL001, DEL003, DEL006, DEL007, DEL008, DEL012, DEL013, DEL014, DEL018, DEL019, DEL020, DEL022 and DEL025 in Table 7 were prepared. In addition, heterozygous diploids in which DEL006, DEL014 and DEL 022 were mated with a non-gene-disrupted strain (hereafter, referred to as DEL006 heterozygous diploid, DEL 014 heterozygous diploid, DEL022 heterozygous diploid) and, further, a heterozygous diploid in which DEL000 and DEL014 were mated (hereafter, referred to as DEL000/014 heterozygous diploid) were prepared.
(§7) Competent cells of W303 ATCC201239 (MATa/MATα leu2-3/leu2-3 leu2-112/leu2-112 trp1-1/trp1-1 ura3-1/ura3-1 his 3-11/his3-11 his3-15/his3-15 ade2-1/ade2-1 can1-100/can1-100) which is a parent strain of gene-disrupted strains, and each of prepared gene-disrupted strains were prepared. The competent cells were transformed using two kind of prepared plasmid for promoter assay, p-YBR072W (in which GFP is connected downstream of a promoter of YBR072W) and p-YPL171C (in which GFP is connected downstream of a promoter of YPL171C).
(§8) The resulting transformant was grown to the steady state by shaking-culturing on a SD medium (adenine, hystidine, triptophan, leucine) at 25° C. The transformant in the steady state was diluted 500-fold with the same medium, shaking-cultured at 25° C. for 15 hours and, after it was confirmed that an absorbance at 600 nm was 0.2 to 0.5 as a logarithmic growth phase, chemicals having different concentrations were loaded. After loading of chemicals, fluorescence of cells which had been cultured for 4 hours was measured using a flow cytometer (FITC filter, EPICS XL-MCL, Bechmancoulter), and this was adopted as an expression amount of GFP (green fluorescence protein) which is a marker gene. A fluorescence intensity of 10000 cells was measured with a flow cytometer by one measurement and an average of fluorescence intensities of all cells was obtained, and was adopted as a measured value. Similarly, a fluorescence intensity of a cell to which a chemical had not been loaded was obtained, and results are shown as difference in a fluorescence intensity.

[6] = system: homozygous diploid of gene-disrupted strain DEL022 (YLR226W) transformed with a plasmid p-YBR072W; test: promoter assay (GFP reporter), Example 3; settings: DEL022 (DEL0022) homozygous diploid, W303 background
From the text: as §4, §5, §6, §7, §8

[7] = system: homozygous diploid of gene-disrupted strain DEL012 (YGR006W) transformed with a plasmid p-YBR072W; test: promoter assay (GFP reporter), Example 3; settings: W303 background
From the text: as §4, §5, §6, §7, §8

[8] = system: homozygous diploid of gene-disrupted strain DEL007 (YKL080W) transformed with a plasmid p-YBR072W; test: promoter assay (GFP reporter), Example 3; settings: EL007 homozygous diploid, W303 background
From the text: as §4, §5, §6, §7, §8

[9] = system: homozygous diploid of gene-disrupted strain DEL013 (YGR105W) transformed with a plasmid p-YBR072W; test: promoter assay (GFP reporter), Example 3; settings: W303 background
From the text: as §4, §5, §6, §7, §8

[10] = system: heterozygous diploid of gene-disrupted strain DEL022 (YLR226W) transformed with a plasmid p-YBR072W; test: promoter assay (GFP reporter), Example 3; settings: DEL0022 heterozygous diploid, W303 background
From the text: as §4, §5, §6, §7, §8

[11] = system: homozygous diploid of gene-disrupted strain DEL020 (YKL119C) transformed with a plasmid p-YBR072W; test: promoter assay (GFP reporter), Example 3; settings: W303 background
From the text: as §4, §5, §6, §7, §8

CCN(CC)C(=O)SCc1ccc(Cl)cc1 [benthiocarb]
1/3: concentration at which the strain responded, as fraction of a concentration of a parent strain [2] | concentration at which the strain responded, as fraction of a concentration of a parent strain [4] | concentration at which sensitivity is shown, as fraction of a concentration of a gene-non-disrupted strain [7] | concentration at which sensitivity is shown, as fraction of a concentration of a gene-non-disrupted strain [9] | concentration at which sensitivity is shown, as fraction of a concentration of a gene-non-disrupted strain [10] | concentration at which sensitivity is shown, as fraction of a concentration of a gene-non-disrupted strain [11]
1/10: concentration at which the strain responded, as fraction of a concentration of a parent strain [1] | concentration at which sensitivity is shown, as fraction of a concentration of a gene-non-disrupted strain [5] | concentration at which sensitivity is shown, as fraction of a concentration of a gene-non-disrupted strain [6] | concentration at which sensitivity is shown, as fraction of a concentration of a gene-non-disrupted strain [8]
1/100: concentration at which the strain responded, as fraction of a concentration of a parent strain [3]
